Measured values as given in US20160115540A1, “PRODRUGS AND DRUGS” (Biogen MA Inc., priority 2013, published 2016).
Where a name gives a salt, the structure may show the parent alone.

Tested on: jejunum
Assay: Transcriptional profiling on Affymetrix GeneChips, single dose, naïve mice: jejunum
Assay type: in vivo, C57BL/6 mice
Description: Treated mice were sacrificed at 2, 7, or 12 hours. Tissues (liver, spleen, kidney, jejunum, cortex, hippocampus, striatum and whole blood) were collected and analyzed by transcriptional profiling on mouse Affymetrix GeneChips.
Tissues (liver, spleen, kidney, jejunum, cortex, hippocampus, striatum and whole blood) were collected and analyzed by transcriptional profiling on mouse Affymetrix GeneChips.
Animals were exposed to CO2 and whole blood collected via cardiac puncture. Two 100 μl aliquots of whole blood were collected in 1.5 mL microcentrifuge tubes and snap frozen in liquid nitrogen. Peripheral (liver, spleen, kidney and jejunum) and CNS brain (cerebellum, hippocampus, striatum and cortex) tissues were harvested and snap frozen in liquid nitrogen, with special care taken to collect tissues of similar size and from the same location. All samples were stored at −80° C. until RNA extraction was conducted.
For RNA preparation, frozen tissues were placed in 2 mL RNAse-free 96-well blocks with 1.5 mL QIAzol Lysis Reagent (QIAgen) and a 3.2 mm stainless steel bead (BioSpec Products, Bartlesville, Okla.). Tissues were disrupted for four cycles of 45 seconds in a Mini-Beadbeater (Biospec Products). RNA was extracted in chloroform and the aqueous phase was mixed with an equal volume of 70% ethanol. Extracted RNA was applied to RNeasy 96 plates and purified by the spin method according to the manufacturer's protocol (RNeasy 96 Universal Tissue Protocol, QIAgen, Hilden Germany).
Automated sample amplifications and biotin labelings were carried out using the NuGEN Ovation RNA Amplification system V2 (Cat #3100), Ovation WB reagent (Cat #1300) and Encore Biotin module (Cat #4200) (NuGEN Technologies, Inc, San Carlos, Calif.) according to manufacturer's recommendations using an Arrayplex automated liquid handler (Beckman Coulter, Indianapolis, Ind.). Two micrograms of biotin labeled sscDNA probe were hybridized to Affymetrix GeneChip Affymetrix HT_MG-430_PM plate arrays with modified conditions as described in Allaire et al. Washing and staining of the hybridized arrays were completed as described in the GeneChip Expression analysis technical manual for HT plate arrays using the Genechip® Array Station (Affymetrix, Santa Clara, Calif.) with modifications as described in Allaire et al. The processed GeneChip® plate arrays were scanned using GeneTitan scanner (Affymetrix, Santa Clara, Calif.).
Affymetrix scans were subject to quality control (QC) measures. These tests included a visual inspection of the distribution of raw signal intensities and an assessment of RNA degradation, relative log expression (RLE), and normalized unsealed standard error (NUSE). All sample scans that passed these QC metrics were included in the analysis.
All CEL files were subjected to GC-content-based Robust Multi-array Average (GCRMA) normalization (version 2.20.0) (Irizarry R A, et al. Nucleic Acids Res 2003; 31:e15; Li C, et al. Genome Biol 2001; 2:[…]0032). Expression levels were log (base 2) transformed.
All calculations and analyses were carried out using R (version 2.11.1) and Bioconductor computational tools (Gentleman R. Springer Science+Business Media 2005).

[1] = 100DMF-vs-Veh or 100MMF-vs-Veh, 12 h

What does the source list for `COC(=O)/C=C/C(=O)O` [MMF, monomethyl fumarate]?
FC Abcc3 (1428988_PM_at) [1]: 2.10; FC Acsm5 (1437662_PM_at) [1]: 1.95; FC Akr1b8 (1448894_PM_at) [1]: 18.78; FC Akr1c12 (1450455_PM_s_at) [1]: 1.76; FC Akr1c19 (1455454_PM_at) [1]: 3.53; FC Blvrb (1451386_PM_at) [1]: 1.54; FC Cbr3 (1427912_PM_at) [1]: 32.24; FC Ces1e (1419510_PM_at) [1]: 2.77; FC Ces1f (1424266_PM_s_at) [1]: 6.54; FC Ces1g (1449486_PM_at) [1]: 9.45; FC G6pd2 (1422327_PM_s_at) [1]: 1.83; FC Gpx2 (1449279_PM_at) [1]: 1.54; FC Gsr (1421816_PM_at) [1]: 2.67; FC Gss (1441931_PM_x_at) [1]: 1.55; FC Gsta2 (1421040_PM_a_at) [1]: 6.66; FC Gsta2 (1421041_PM_s_at) [1]: 2.09; FC Gsta3 (1423436_PM_at) [1]: 10.80; FC Gsta3 (1423437_PM_at) [1]: 7.97; FC Gstm1 (1425627_PM_x_at) [1]: 4.61; FC Gstm1 (1448330_PM_at) [1]: 4.27; FC Gstm3 (1427473_PM_at) [1]: 2.14; FC Gstm3 (1427474_PM_s_at) [1]: 1.58; FC Gstm4 (1424835_PM_at) [1]: 5.43; FC Gstm6 (1422072_PM_a_at) [1]: 2.19; FC Nqo1 (1423627_PM_at) [1]: 2.34; FC Pir (1429001_PM_at) [1]: 4.19; FC Setd4 (1425239_PM_at) [1]: 1.60; FC Setd4 (1460373_PM_a_at) [1]: 1.56; FC Slc5a4b (1422757_PM_at) [1]: 2.16; FC Ugt2b5 (1419622_PM_at) [1]: 5.00; FC Ugt2b35 (1439624_PM_at) [1]: 2.45; FC Ugt2b36 (1455595_PM_at) [1]: 3.03; FC 6-Sep (1424181_PM_at) (100MMF-vs-Veh, 2 h): 1.56; FC 1443118_PM_at (100MMF-vs-Veh, 2 h): 1.69; FC 1444265_PM_at (100MMF-vs-Veh, 2 h): 1.93; FC 1445980_PM_at (100MMF-vs-Veh, 2 h): 2.43; FC 1446045_PM_at (100MMF-vs-Veh, 2 h): 1.69; FC 1447411_PM_at (100MMF-vs-Veh, 2 h): 2.81; FC 1459091_PM_at (100MMF-vs-Veh, 2 h): 2.02; FC 2010002N04Rik (1423306_PM_at) (100MMF-vs-Veh, 2 h): 1.57; FC 9030409G11Rik (1434169_PM_at) (100MMF-vs-Veh, 2 h): 1.52; FC 9130221J17Rik (1443159_PM_at) (100MMF-vs-Veh, 2 h): 2.36; FC Acss2 (1446542_PM_at) (100MMF-vs-Veh, 2 h): 1.84; FC Akr1b8 (1448894_PM_at) (100MMF-vs-Veh, 2 h): 8.24; FC Akr1c19 (1455454_PM_at) (100MMF-vs-Veh, 2 h): 2.33; FC Areg (1421134_PM_at) (100MMF-vs-Veh, 2 h): 2.71; FC Blvrb (1451386_PM_at) (100MMF-vs-Veh, 2 h): 1.57; FC Bmp2 (1423635_PM_at) (100MMF-vs-Veh, 2 h): −1.55; FC Cbr1 (1460196_PM_at) (100MMF-vs-Veh, 2 h): 1.53; FC Cbr3 (1427912_PM_at) (100MMF-vs-Veh, 2 h): 55.49; FC Ces1f (1424266_PM_s_at) (100MMF-vs-Veh, 2 h): 2.71; FC Ces1g (1449486_PM_at) (100MMF-vs-Veh, 2 h): 3.68; FC Dnase2a (1430135_PM_at) (100MMF-vs-Veh, 2 h): 1.79; FC Dppa5a (1416552_PM_at) (100MMF-vs-Veh, 2 h): 2.64; FC Ereg (1419431_PM_at) (100MMF-vs-Veh, 2 h): 2.00; FC Ero1l (1419030_PM_at) (100MMF-vs-Veh, 2 h): 1.90; FC Esd (1441604_PM_at) (100MMF-vs-Veh, 2 h): 1.52; FC Figf (1438953_PM_at) (100MMF-vs-Veh, 2 h): 1.63; FC G6pd2 (1422327_PM_s_at) (100MMF-vs-Veh, 2 h): 1.74; FC Gabarapl1 (1416418_PM_at) (100MMF-vs-Veh, 2 h): 1.52; FC Gclc (1424296_PM_at) (100MMF-vs-Veh, 2 h): 3.99; FC Gclc (1455959_PM_s_at) (100MMF-vs-Veh, 2 h): 3.06; FC Gsr (1421816_PM_at) (100MMF-vs-Veh, 2 h): 2.19; FC Gss (1441931_PM_x_at) (100MMF-vs-Veh, 2 h): 1.92; FC Gss (1448273_PM_at) (100MMF-vs-Veh, 2 h): 1.69; FC Gsta3 (1423436_PM_at) (100MMF-vs-Veh, 2 h): 3.23; FC Gsta3 (1423437_PM_at) (100MMF-vs-Veh, 2 h): 3.64; FC Gstm1 (1416416_PM_x_at) (100MMF-vs-Veh, 2 h): 2.38; FC Gstm1 (1425627_PM_x_at) (100MMF-vs-Veh, 2 h): 2.70; FC Gstm1 (1448330_PM_at) (100MMF-vs-Veh, 2 h): 2.47; FC Gstm3 (1427473_PM_at) (100MMF-vs-Veh, 2 h): 2.51; FC Gstm3 (1427474_PM_s_at) (100MMF-vs-Veh, 2 h): 1.57; FC Hfe 1422645_PM_at (100MMF-vs-Veh, 2 h): 1.73; FC Htatip2 (1451814_PM_a_at) (100MMF-vs-Veh, 2 h): 1.53; FC LOC100504040 (1457279_PM_at) (100MMF-vs-Veh, 2 h): 2.24; FC Lpin2 (1452837_PM_at) (100MMF-vs-Veh, 2 h): 1.61; FC Lrp8 (1440882_PM_at) (100MMF-vs-Veh, 2 h): 2.23; FC Mafg (1434054_PM_at) (100MMF-vs-Veh, 2 h): 1.95; FC Mafg (1448916_PM_at) (100MMF-vs-Veh, 2 h): 2.01; FC Nqo1 (1423627_PM_at) (100MMF-vs-Veh, 2 h): 2.16; FC Osgin1 (1424022_PM_at) (100MMF-vs-Veh, 2 h): 1.98; FC Prr5l (1452834_PM_at) (100MMF-vs-Veh, 2 h): −1.64; FC Prss8 (1418320_PM_at) (100MMF-vs-Veh, 2 h): 2.41; FC Setd4 (1425239_PM_at) (100MMF-vs-Veh, 2 h): 2.11; FC Setd4 (1435405_PM_at) (100MMF-vs-Veh, 2 h): 1.93; FC Setd4 (1460373_PM_a_at) (100MMF-vs-Veh, 2 h): 1.87
